US6924302B2, “Substituted triazole diamine derivatives as kinase inhibitors” (Ortho McNeil Pharmaceutical, Inc., priority 2000, dated 2005)

Key:
Settings in all cases: Tables 2a-2k
ERK-1 protein = molecular target: T1, ERK-1 protein (Homo sapiens, UniProt P27361); test: Kinase Selectivity Assay ERK-1; type: biochemical
T1 construct: purchased Calbiochem
Method: Assays to test compound inhibition of other kinases were preformed using methods that measure the amount of phosphorylation of a biotinylated peptide substrate. Biotinylated peptide substrates were selected from the literature as appropriate for the enzyme being evaluated. The general procedure used to assay for kinase activity is as follows: A kinase reaction mix was prepared in 50 mM Tris-HCl pH=8, 10 mM MgCl2, 0.1 mM Na3VO4, 1 mM DTT, 10 μM ATP, 0.25-1 μM biotinylated peptide substrate, 0.2-0.82 μCuries per well ^33P-γ-ATP [2000-3000 Ci/mmol]. Assay conditions vary slightly for each protein kinase, for example, insulin receptor kinase requires 10 mM MnCl2 for activity and Calmodulin-dependent protein kinase requires calmodulin and 10 mM CaCl2. These assay conditions are known in the art. […] The plate was read on a scintillation counter to determine ^33P-γ-ATP incorporated into the immobilized peptide. […] A maximum and minimum signal for the assay was determined on each plate. The IC50 was calculated from the dose response curve of the percent inhibition of the maximum signal in the assay according to the formula [max signal—background/test compound signal—background (100)=% inhibition] by graphing the percent inhibition against the log concentration of test compound. […]

CDK4/D1 complex = molecular target: T2, CDK4/D1 complex (Mus musculus, UniProt P30285); test: Kinase Selectivity Assay CDK4; type: biochemical
T2 construct: made in house; host or cells: insect cells (baculovirus co-infection)
Method: Assays to test compound inhibition of other kinases were preformed using methods that measure the amount of phosphorylation of a biotinylated peptide substrate. Biotinylated peptide substrates were selected from the literature as appropriate for the enzyme being evaluated. The general procedure used to assay for kinase activity is as follows: A kinase reaction mix was prepared in 50 mM Tris-HCl pH=8, 10 mM MgCl2, 0.1 mM Na3VO4, 1 mM DTT, 10 μM ATP, 0.25-1 μM biotinylated peptide substrate, 0.2-0.82 μCuries per well ^33P-γ-ATP [2000-3000 Ci/mmol]. Assay conditions vary slightly for each protein kinase, for example, insulin receptor kinase requires 10 mM MnCl2 for activity and Calmodulin-dependent protein kinase requires calmodulin and 10 mM CaCl2. These assay conditions are known in the art. The reaction mixture was dispensed into the wells of a streptavidin coated Flashplate and 1 μl drug stock in 100% DMSO was added to a 100 μl reaction volume resulting in a final concentration of 1% DMSO on the reaction. Enzyme was diluted in 50 mM Tris-HCl pH=8.0, 0.1% BSA and add to each well. The reaction was incubated for one hour at 30° C. in the presence of compound. After one hour the reaction mix was aspirated from the plate and the plate was washed with PBS containing 100 mM EDTA. The plate was read on a scintillation counter to determine ^33P-γ-ATP incorporated into the immobilized peptide. Test compounds were assayed in duplicate at 8 concentrations [100 uM, 10 uM, 1 uM, 100 nM, 10 nM, 1 nM, 100 pM, 10 pM]. A maximum and minimum signal for the assay was determined on each plate. The IC50 was calculated from the dose response curve of the percent inhibition of the maximum signal in the assay according to the formula [max signal—background/test compound signal—background (100)=% inhibition] by graphing the percent inhibition against the log concentration of test compound. Known inhibitor compounds appropriate for the kinase being assayed were also included on each plate. […]

[1] = molecular target: PKC (protein kinase-C), gamma or beta isoform; test: Kinase Selectivity Assay PKC; type: biochemical, human
Method: Assays to test compound inhibition of other kinases were preformed using methods that measure the amount of phosphorylation of a biotinylated peptide substrate. Biotinylated peptide substrates were selected from the literature as appropriate for the enzyme being evaluated. […] Assay conditions vary slightly for each protein kinase, for example, insulin receptor kinase requires 10 mM MnCl2 for activity and Calmodulin-dependent protein kinase requires calmodulin and 10 mM CaCl2. These assay conditions are known in the art. The reaction mixture was dispensed into the wells of a streptavidin coated Flashplate and 1 μl drug stock in 100% DMSO was added to a 100 μl reaction volume resulting in a final concentration of 1% DMSO on the reaction. Enzyme was diluted in 50 mM Tris-HCl pH=8.0, 0.1% BSA and add to each well. The reaction was incubated for one hour at 30° C. in the presence of compound. After one hour the reaction mix was aspirated from the plate and the plate was washed with PBS containing 100 mM EDTA. The plate was read on a scintillation counter to determine ^33P-γ-ATP incorporated into the immobilized peptide. Test compounds were assayed in duplicate at 8 concentrations [100 uM, 10 uM, 1 uM, 100 nM, 10 nM, 1 nM, 100 pM, 10 pM]. A maximum and minimum signal for the assay was determined on each plate. The IC50 was calculated from the dose response curve of the percent inhibition of the maximum signal in the assay according to the formula [max signal—background/test compound signal—background (100)=% inhibition] by graphing the percent inhibition against the log concentration of test compound. Known inhibitor compounds appropriate for the kinase being assayed were also included on each plate.
CDK2 in complex with cyclin A is commercially available (Upstate Biotech, Lake Placid, N.Y.). […]

T2 sequence (P30285 whole entry): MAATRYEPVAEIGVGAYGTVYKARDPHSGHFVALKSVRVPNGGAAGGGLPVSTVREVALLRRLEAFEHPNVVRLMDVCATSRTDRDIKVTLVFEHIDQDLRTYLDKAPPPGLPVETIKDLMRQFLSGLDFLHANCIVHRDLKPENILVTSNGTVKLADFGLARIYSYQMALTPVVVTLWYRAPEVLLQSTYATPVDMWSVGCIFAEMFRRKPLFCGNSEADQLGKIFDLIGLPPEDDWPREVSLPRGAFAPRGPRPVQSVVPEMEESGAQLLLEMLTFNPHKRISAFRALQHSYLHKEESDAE
T2 sequence (P25322 whole entry partner): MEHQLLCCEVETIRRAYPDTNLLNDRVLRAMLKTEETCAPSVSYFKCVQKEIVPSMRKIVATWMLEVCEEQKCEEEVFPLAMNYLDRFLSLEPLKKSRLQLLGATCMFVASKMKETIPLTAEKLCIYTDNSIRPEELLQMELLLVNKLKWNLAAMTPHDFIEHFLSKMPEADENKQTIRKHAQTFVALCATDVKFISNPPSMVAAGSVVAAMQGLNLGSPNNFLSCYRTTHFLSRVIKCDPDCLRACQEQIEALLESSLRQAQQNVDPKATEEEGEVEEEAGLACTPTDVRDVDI
T1 sequence (P27361 whole entry, species assumed): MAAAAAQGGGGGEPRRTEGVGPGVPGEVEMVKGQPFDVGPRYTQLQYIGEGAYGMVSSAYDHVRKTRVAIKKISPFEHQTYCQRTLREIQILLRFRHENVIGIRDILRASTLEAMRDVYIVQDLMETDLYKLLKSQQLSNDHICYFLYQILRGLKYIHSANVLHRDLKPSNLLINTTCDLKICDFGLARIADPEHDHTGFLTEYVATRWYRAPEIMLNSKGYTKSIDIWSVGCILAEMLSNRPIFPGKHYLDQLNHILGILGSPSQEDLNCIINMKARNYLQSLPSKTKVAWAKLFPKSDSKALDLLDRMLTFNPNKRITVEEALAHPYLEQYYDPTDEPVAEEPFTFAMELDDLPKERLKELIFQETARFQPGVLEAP

SMILES	IC50 (CDK4/D1 complex) [nM]	also measured
Nc1nc(Nc2ccc(S(N)(=O)=O)cc2)nn1C(=O)c1cccs1 [Cpd 14, 4-[[5-amino-1-(2-thienylcarbonyl)-1H-1,2,4-triazol-3-yl]amino]-benzenesulfonamide]		IC50 (ERK-1 protein): > 100000 nM
Cc1ccc(F)c(C(=O)n2nc(Nc3ccc(S(N)(=O)=O)cc3)nc2N)c1Cl [Cpd 69, 4-[[5-amino-1-(2-chloro-6-fluoro-3-methylbenzoyl)-1H-1,2,4-triazol-3-yl]amino]-benzenesulfonamide]	187	
Nc1nc(Nc2ccc(S(N)(=O)=O)cc2)nn1C(=O)c1c(F)cccc1Cl [Cpd 70, 4-[[5-amino-1-(2-chloro-6-fluorobenzoyl)-1H-1,2,4-triazol-3-yl]amino]-benzenesulfonamide]	167	
CN1CCN(c2ccc(Nc3nc(N)n(C(=O)c4c(F)cccc4F)n3)cc2)CC1 [Cpd 71, 1-(2,6-difluorobenzoyl)-N^3-[4-(4-methyl-1-piperazinyl)phenyl]-1H-1,2,4-triazole-3,5-diamine]	129	
Cc1ccsc1C(=O)n1nc(Nc2ccc(N3CCNC3=O)cc2)nc1N [Cpd 113, 1-[4-[[5-amino-1-[(3-methyl-2-thienyl)carbonyl]-1H-1,2,4-triazol-3-yl]amino]phenyl]-2-imidazolidinone]		IC50 [1]: > 100000 nM
